# Results reported in PubChem BioAssay (NCI).
#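 Dose response: 5 concentrations. Exposure: 48 h. Format: 96-well plates. Endpoint: linear interpolation; highest concentration if not reached. GI50 = concentration required for 50% inhibition of growth. TGI is the concentration that stops growth completely.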
# How the values were obtained:
# Test in all cases: DTP human tumour cell line panel, 48 h
# [1] = test system: UACC-62 melanoma
# [2] = test system: HOP-92 NSCLC
# [3] = test system: MOLT-4 leukemia
# [4] = test system: SK-MEL-28 melanoma
# [5] = test system: K-562 leukemia
# [6] = test system: RPMI-8226 leukemia
# [7] = test system: A549 NSCLC
# [8] = test system: UO-31 renal
# [9] = test system: CAKI-1 renal
# [10] = test system: UACC-257 melanoma
# [11] = test system: SF-539 CNS
# [12] = test system: TK-10 renal
# [13] = test system: CCRF-CEM leukemia
# [14] = test system: RXF 393 renal
# [15] = test system: SNB-75 CNS
# [16] = test system: A498 renal
# [17] = test system: SN12C renal
# [18] = test system: LOX IMVI melanoma
# [19] = test system: HT29 colon
# [20] = test system: MALME-3M melanoma
# [21] = test system: HCC-2998 colon
# [22] = test system: OVCAR-8 ovarian
# [23] = test system: SR leukemia
# [24] = test system: NCI-H522 lung
# [25] = test system: COLO 205 colon
# [26] = test system: SW-620 colon
# [27] = test system: MCF7 breast
# [28] = test system: SF-295 CNS
# [29] = test system: U251 CNS
smiles,measurement,setting,value
O=C(Nc1cccc(-c2cccc(F)c2)c1)C1CCN(Cc2cccc3cccnc23)CC1,TGI,[1],3.28 µM
same,GI50,[2],2.03 µM
same,TGI,[2],7.22 µM
same,GI50,[3],1.66 µM
same,TGI,[3],4.77 µM
same,GI50,[4],1.82 µM
same,TGI,[4],3.57 µM
same,GI50,[5],1.52 µM
same,TGI,[5],3.87 µM
same,GI50,[6],1.95 µM
same,TGI,[6],4.49 µM
same,GI50,[7],3.47 µM
same,TGI,[7],13 µM
same,GI50,[8],1.73 µM
same,TGI,[8],4.11 µM
same,GI50,[9],1.96 µM
same,TGI,[9],4.07 µM
same,GI50,[10],1.83 µM
same,TGI,[10],3.75 µM
same,GI50,[11],1.8 µM
same,TGI,[11],3.56 µM
same,GI50,[12],4.3 µM
same,TGI,[12],16.7 µM
same,GI50,[13],2.67 µM
same,TGI,[13],11.2 µM
same,GI50,[14],1.57 µM
same,TGI,[14],3.47 µM
same,GI50,[15],2.4 µM
same,TGI,[15],11.7 µM
same,GI50,[16],2.06 µM
same,TGI,[16],7.09 µM
same,GI50,[17],1.97 µM
same,TGI,[17],4.83 µM
same,GI50,[18],1.59 µM
same,TGI,[18],3.12 µM
same,GI50,[19],1.51 µM
same,TGI,[19],3.17 µM
same,GI50,[20],1.65 µM
same,TGI,[20],3.28 µM
same,GI50,[21],1.77 µM
same,TGI,[21],3.29 µM
same,GI50,[22],3.53 µM
same,TGI,[22],13.8 µM
same,GI50,[23],1.66 µM
same,TGI,[23],4.46 µM
same,GI50,[24],2.16 µM
same,TGI,[24],5.1 µM
same,GI50,[25],1.62 µM
same,TGI,[25],3.29 µM
same,GI50,[26],1.71 µM
same,TGI,[26],3.57 µM
same,GI50,[27],1.8 µM
same,TGI,[27],4.16 µM
same,GI50,[28],1.8 µM
same,TGI,[28],3.6 µM
same,GI50,[29],1.85 µM
same,TGI,[29],3.73 µM
